In patent publication US20260193180A1, “AUTOPHAGY INDUCING COMPOUNDS AND USES THEREOF” (SAMSARA THERAPEUTICS INC., priority 2022, published 2026):
Where a name gives a salt, the structure may show the parent alone.

System: Human osteosarcoma U2OS cells
Assay: Acidic vesicle formation (lysosome/autolysosome staining, LysoView 633 / LysoTracker Deep Red), stimulation of autophagy
Format: cell-based
Details: 24 hours; for activation at 0.8 µM: read-out: Activity (percentage increase in acidic vesicle formation over the DMSO-treated control); for activation at 10 µM: read-out: increase in acidic vesicle formation over the DMSO-treated control
Experimental: Lysosomes play a fundamental role in the autophagic pathway by fusing with autophagosomes and creating ‘autolysosomes’ in order to digest their contents. Stimulation of lysosome and autolysosome formation by a compound is indicative of a stimulation of autophagy. The ability of compounds to stimulate lysosome and autolysosome formation, and thus autophagy, in live cells was assessed via fluorescent microscopy using various fluorescent stains for labelling and tracking acidic organelles (including lysosomes and autolysosomes) such as: LysoView™ 650 (70059 and 70059-T, Biotium), LysoView™633 (70058 and 70058-T, Biotium) and LysoTracker™ Deep Red (L12492, ThermoFisher Scientific). The cellular phenotype was quantitatively assessed for the induction of acidic vesicle formation and compared to a non-treated control, thus providing a measure of the ability of the compound under investigation to stimulate autophagy.
Representative procedure using LysoView™633 dye or LysoTracker™ Deep Red dye: Human osteosarcoma U2OS cells (40,000 cells/well) were seeded in a 24 well glass bottom plate (Sensoplate, Greiner Bio-One) and were incubated overnight in a humidified atmosphere at 37° C. and 5% CO2. Cells were grown in DMEM (Gibco) supplemented with 10% Fetal Bovine Serum (FBS) and 100 units/ml penicillin and 100 μg/ml streptomycin (Invitrogen). After the attachment period, cells were treated with different compounds of interest (at various concentrations in DMSO) or DMSO (non-treated control) in cell culture medium and were incubated for 24 hours. Compound-containing medium was removed and cells were incubated with pre-warmed cell culture medium containing 1× LysoView™ 633 (70058 and 70058-T, Biotium) or 50 nM LysoTracker™ Deep Red (L12492, ThermoFisher Scientific) for 45 minutes at 37° C. Finally, cell nuclei were stained for 10 minutes using Hoechst 33342 (1 μg/mL) and then the medium was replaced with fresh medium. The 24 well plate was then fitted into a heated stage on the microscope and cells maintained at 37° C. Images were captured using appropriate filter set for Cy5 and DAPI detection with the EVOS M7000 Microscope (ThermoFisher Scientific). The cellular phenotype was visually assessed for the induction of acidic vesicle formation relative to the non-treated control; multiple images were acquired and analysed using ImageJ or Cell Profiler.

| SMILES | activation at 0.8 µM | activation at 10 µM |
| --- | --- | --- |
| CCOc1ccc(Cl)cc1CN1CCC(N(C)C)CC1 [Compound 11, 1-(5-chloro-2-ethoxybenzyl)-N,N-dimethylpiperidin-4-amine] | 10 to 30% | ≥ 25% |
| CCOc1ccc(Cl)cc1CN1CC(CN)C1 [Compound 17, (1-(5-chloro-2-ethoxybenzyl)azetidin-3-yl)methanamine hydrochloride] | 50 to 100% | ≥ 25% |
| CCOc1ccc(Cl)cc1CN1CCO[C@@H](CN)C1 [Compound 28, (S)-(4-(5-chloro-2-ethoxybenzyl)morpholin-2-yl)methanamine hydrochloride] | 10 to 30% | ≥ 25% |
| N#Cc1ccc(OCC2CC2)c(CCN2CC[C@@H](CN)C2)c1 [Compound 66, (S)-3-(2-(3-(aminomethyl)pyrrolidin-1-yl)ethyl)-4-(cyclopropylmethoxy)benzonitrile hydrochloride] |  | ≥ 25% |
| CCOc1ccc(CCN2CCC[C@@H](CN)C2)cc1Cl [Compound 67, (S)-(1-(3-chloro-4-ethoxyphenethyl)piperidin-3-yl)methanamine hydrochloride] |  | ≥ 25% |
| CCOc1ccc(Cl)cc1CN1CCN(CC)CC1 [Compound 10, 1-(5-chloro-2-ethoxybenzyl)-4-ethylpiperazine] | 10 to 30% | ≥ 25% |
| CCCCOc1ccc(Cl)cc1CN1CC[C@H](CN)C1 [Compound 26, (R)-(1-(2-butoxy-5-chlorobenzyl)pyrrolidin-3-yl)methanamine hydrochloride] | > 100% | ≥ 25% |
| NC[C@@H]1CCN(Cc2cc(Cl)ccc2OCCO)C1 [Compound 25, (S)-2-(2-((3-(aminomethyl)pyrrolidin-1-yl)methyl)-4-chlorophenoxy)ethan-1-ol hydrochloride] | 30 to 50% | ≥ 25% |
| CCCCOc1ccc(Cl)cc1CN1CC[C@@H](CN)C1 [Compound 27, (S)-(1-(2-butoxy-5-chlorobenzyl)pyrrolidin-3-yl)methanamine hydrochloride] | > 100% | ≥ 25% |
| CC(C)Oc1ccc(Cl)cc1CN1CC[C@@H](CN)C1 [Compound 53, (S)-(1-(5-chloro-2-isopropoxybenzyl)pyrrolidin-3-yl)methanamine hydrochloride] |  | ≥ 25% |
| CCOc1cc(F)c(CN2CC[C@@H](CN)C2)cc1Cl [Compound 58, (S)-(1-(5-chloro-4-ethoxy-2-fluorobenzyl)pyrrolidin-3-yl)methanamine hydrochloride] |  | ≥ 25% |
| CCOc1ccc(Cl)c(Cl)c1CCN1CC[C@@H](CN)C1 [Compound 34, (S)-(1-(2,3-dichloro-6-ethoxyphenethyl)pyrrolidin-3-yl)methanamine hydrochloride] |  | ≥ 25% |
| CCOc1ccc(C(F)(F)F)cc1CN1CC[C@@H](CN)C1 [Compound 2, (S)-(1-(2-ethoxy-5-(trifluoromethyl)benzyl)pyrrolidin-3-yl)methanamine hydrochloride] | 10 to 30% | ≥ 25% |
| NC[C@@H]1CCN(CCc2cc(Cl)cc3c2OCO3)C1 [Compound 33, (S)-(1-(2-(6-chlorobenzo[d][1,3]dioxol-4-yl)ethyl)pyrrolidin-3-yl)methanamine hydrochloride] |  | ≥ 25% |
| CCOc1cc(Cl)cc(CN2CC[C@@H](CN)C2)c1 [Compound 31, (S)-(1-(3-chloro-5-ethoxybenzyl)pyrrolidin-3-yl)methanamine hydrochloride] | > 100% | ≥ 25% |
| CCOc1ccc(Cl)cc1CN1CCNCC1 [Compound 40, 1-(5-chloro-2-ethoxybenzyl)piperazine hydrochloride] | 10 to 30% | ≥ 25% |
| CCCOc1ccc(Cl)cc1CCN1CC[C@@H](CN)C1 [Compound 48, (S)-(1-(5-chloro-2-propoxyphenethyl)pyrrolidin-3-yl)methanamine hydrochloride] | 10 to 30% | ≥ 25% |
| NC[C@H]1CCN(Cc2cc(Cl)ccc2OCCO)C1 [Compound 24, (R)-2-(2-((3-(aminomethyl)pyrrolidin-1-yl)methyl)-4-chlorophenoxy)ethan-1-ol hydrochloride] |  | ≥ 25% |

| SMILES | activation at 0.8 µM | activation at 10 µM |
| --- | --- | --- |
| CCOc1cc(Cl)c(Cl)cc1CN1CCN[C@@H](C)C1 [Compound 37, (S)-1-(4,5-dichloro-2-ethoxybenzyl)-3-methylpiperazine hydrochloride] | 10 to 30% | ≥ 25% |
| CCOc1ccc(Cl)cc1CCN1CC[C@@H](CN)C1 [Compound 49, (S)-(1-(5-chloro-2-ethoxyphenethyl)pyrrolidin-3-yl)methanamine hydrochloride] |  | ≥ 25% |
| CCOc1cc(F)c(F)cc1CN1CC[C@H](CN)C1 [Compound 21, (R)-(1-(2-ethoxy-4,5-difluorobenzyl)pyrrolidin-3-yl)methanamine hydrochloride] |  | ≥ 25% |
| CCOc1cc(Cl)c(Cl)cc1CN1CC[C@@H](CN)C1 [Compound 5, (S)-(1-(4,5-dichloro-2-ethoxybenzyl)pyrrolidin-3-yl)methanamine hydrochloride] | 30 to 50% | ≥ 25% |
| CCOc1ccc(Cl)cc1CN1CCO[C@H](CN)C1 [Compound 29, (R)-(4-(5-chloro-2-ethoxybenzyl)morpholin-2-yl)methanamine hydrochloride] | 50 to 100% | ≥ 25% |
| CCOc1ccc(Cl)cc1CN1CC[C@H](CN)C1 [Compound 56, (R)-(1-(5-chloro-2-ethoxybenzyl)pyrrolidin-3-yl)methanamine hydrochloride] | > 100% | ≥ 25% |
| NC[C@@H]1CCCN(Cc2cc(Cl)ccc2OCC2CC2)C1 [Compound 8, (S)-(1-(5-chloro-2-(cyclopropylmethoxy)benzyl)piperidin-3-yl)methanamine hydrochloride] | 10 to 30% | ≥ 25% |
| CCCOc1ccc(Cl)cc1CN1CC[C@@H](CN)C1 [Compound 3, (S)-(1-(5-chloro-2-propoxybenzyl)pyrrolidin-3-yl)methanamine hydrochloride] | 30 to 50% | ≥ 25% |
| NC[C@@H]1CCN(CCc2cc(Cl)ccc2OCC2CC2)C1 [Compound 44, (S)-(1-(5-chloro-2-(cyclopropylmethoxy)phenethyl)pyrrolidin-3-yl)methanamine hydrochloride] | 50 to 100% | ≥ 25% |
| CCOc1cc(C#N)c(Cl)cc1CN1CC[C@@H](CN)C1 [Compound 61, (S)-4-((3-(aminomethyl)pyrrolidin-1-yl)methyl)-2-chloro-5-ethoxybenzonitrile hydrochloride] |  | ≥ 25% |
| CCOc1ccc(Cl)cc1CN1CC[C@@H](CN(C)C)C1 [Compound 50, (S)-1-(1-(5-chloro-2-ethoxybenzyl)pyrrolidin-3-yl)-N,N-dimethylmethanamine] | 10 to 30% | ≥ 25% |
| CCOc1cc(F)c(F)cc1CN1CC[C@@H](CN)C1 [Compound 22, (S)-(1-(2-ethoxy-4,5-difluorobenzyl)pyrrolidin-3-yl)methanamine hydrochloride] |  | ≥ 25% |
| CCOc1ccc(Cl)cc1CN1CC[C@H](N)C1 [Compound 69, (S)-1-(5-chloro-2-ethoxybenzyl)pyrrolidin-3-amine hydrochloride] |  | ≥ 25% |
| COCCOc1ccc(Cl)cc1CN1CC[C@@H](CN)C1 [Compound 54, (S)-(1-(5-chloro-2-(2-methoxyethoxy)benzyl)pyrrolidin-3-yl)methanamine hydrochloride] |  | ≥ 25% |
| CCCOc1ccc(OC(F)(F)F)cc1CN1CCN[C@@H](C)C1 [Compound 32, (S)-3-methyl-1-(2-propoxy-5-(trifluoromethoxy)benzyl) piperazine hydrochloride] | 50 to 100% | ≥ 25% |
| CCOc1cc(Cl)c(Cl)cc1CCN1CC[C@@H](CN)C1 [Compound 35, (S)-(1-(4,5-dichloro-2-ethoxyphenethyl)pyrrolidin-3-yl)methanamine hydrochloride] |  | ≥ 25% |
| CCCOc1ccc(Cl)cc1CN1CCN[C@@H](C)C1 [Compound 47, (S)-1-(5-chloro-2-propoxybenzyl)-3-methylpiperazine hydrochloride] | 30 to 50% | ≥ 25% |
| CCOc1ccc(Cl)cc1CN1CCN(C(C)C)CC1 [Compound 18, 1-(5-chloro-2-ethoxybenzyl)-4-isopropylpiperazine] | 10 to 30% | ≥ 25% |
